Test results as given in patent US6180341A, “In vitro scanning saturation mutagenesis of proteins” (priority 1998, dated 2001).
Read-outs that look alike come from different tables or passages of the source.

Columns and labels:
[1] = test system: anti-digoxin single chain Fv scFv(Dig) derived from anti-digoxin 26-10 murine monoclonal antibody, wild type (WT), SEQ ID NO:132; format: binding; conditions: for kon: hapten-BSA conjugate immobilized on CM5 chip
Description: (§1) Single chain Fv mutants were produced and purified according to Burks (Burks and Iverson, 1995). The scFv genes from second round overlap extension PCR were ligated into pET25b plasmid and transformed into E. Coli BL21 (DE3) strain. Inclusion bodies that consist of scFvs were isolated from cell lysates and dissolved in 8 M urea. Soluble scFvs were purified by a metal chelating column (IMAC) and refolded by dialyzing against Tris buffer (50 mM Tris. HCl, pH 7.4, 500 mM KCl, 10% glycerol). Protein concentrations were determined by OD280 (Σ=44850) (Pace et al., 1995; Nieba et al., 1989). For the kinetics measurement, antibodies were further purified by a size exclusion gel filtration column Sepharose-75 (Pharmacia Biosensor AB, Sweden) to remove any dimeric or polymeric proteins.
(§2) The digoxin-BSA, digitoxin-BSA, digoxigenin-BSA and ouabain-BSA conjugates were immobilized on the surface of a sensor chip CM5 (approximately 400 RU) following the standard protocol from Pharmacia Biosensor. All kinetics experiments were performed in buffer containing 150 mM NaCl, 10 mM HEPES, 3.4 mM EDTA, and 0.005% P20, pH 7.4 at 25° C. with a flowrate of 60 μl/min (Myszka et al., 1997; Zeder-Lutz et al., 1997; Oddie et al., 1997). ScFv proteins over the concentration range of 25 nM to 400 nM were added to the chip for the association rate measurements. To prevent the rebinding of antibodies on the chip surface, soluble haptens (up to 1 mM) were added into elution buffer for the dissociation rate measurements (Schier et al., 1996). The antibody bound chip was regenerated by 50% ethylene glycol, pH 10. The values of association and dissociation rate of antibodies were calculated using BIAevaluation software from Pharmacia Biosensor. kon was determined from a plot of (ln(dR/dt))/t versus concentration (Karlson et al., 1991). koff was determined from a plot of ln(Ro/R) versus time.
(§3) In additional studies, values for the association and dissociation rate constants (kon and koff, respectively) were measured using a BIAcore 1000 for the wild-type and 14 selected mutant scFv antibodies. […] The selected scFv antibodies were expressed and purified following the procedure described by Burks and Iverson (1995). In each case, care was taken to insure that the kinetic values measured on the BlAcore are free of artifacts due to rebinding or avidity effects arising from multimeric scFvs.

[2] = test system: anti-digoxin 26-10 scFv(Dig) variant HC100H (H:Trp-100→His); format: binding, murine; conditions: for kon: hapten-BSA conjugate immobilized on CM5 chip
Description: as §1, §2, §3

[3] = test system: anti-digoxin 26-10 scFv(Dig) variant HC100K (H:Trp-100→Lys); format: binding, murine; conditions: for kon: hapten-BSA conjugate immobilized on CM5 chip
Description: as §1, §2, §3

[4] = test system: anti-digoxin 26-10 scFv(Dig) variant HC100R (H:Trp-100→Arg); format: binding, murine; conditions: for kon: hapten-BSA conjugate immobilized on CM5 chip
Description: as §1, §2, §3

[5] = test system: anti-digoxin 26-10 scFv(Dig) variant HC50F (H:Tyr50→Phe); format: binding, murine; conditions: for kon: hapten-BSA conjugate immobilized on CM5 chip
Description: as §1, §2, §3

[6] = test system: anti-digoxin 26-10 scFv(Dig) variant HC9ST (heavy chain mutant); format: binding, murine; conditions: for kon: hapten-BSA conjugate immobilized on CM5 chip
Description: as §1, §2, §3

[7] = test system: anti-digoxin 26-10 scFv(Dig) variant LC94F (light chain residue 94→Phe); format: binding, murine; conditions: for kon: hapten-BSA conjugate immobilized on CM5 chip
Description: as §1, §2, §3

[8] = test system: anti-digoxin 26-10 scFv(Dig) variant LC94Y (L:Val-94→Tyr); format: binding, murine; conditions: for kon: hapten-BSA conjugate immobilized on CM5 chip
Description: as §1, §2, §3

[9] = test system: anti-digoxin 26-10 scFv(Dig) variant LC96F (L:Pro-96→Phe); format: binding, murine
Description: as §1, §2, §3

[10] = test system: anti-digoxin 26-10 murine monoclonal antibody; conditions: literature (Schildbach et al., 1993); cited from earlier work
[11] = SPR, hapten-BSA conjugate on chip, soluble hapten in elution buffer, pH 7.4, 25° C.
[12] = SPR, hapten-BSA conjugate on chip, pH 7.4, 25° C.

Question: Which kon ([1]; SPR, pH 7.4, 25° C.) does the source give for C[C@@H]1O[C@@H](O[C@H]2C[C@@H](O)[C@]3(CO)[C@H]4[C@H](O)C[C@]5(C)[C@@H](C6=CC(=O)OC6)CC[C@]5(O)[C@@H]4CC[C@]3(O)C2)[C@H](O)[C@H](O)[C@H]1O [Ouabain, ouabain] here?
Answer: Its kon is 1e+06 M⁻¹ s⁻¹.

Question: What about the koff [1, 11] of the same compound?
Answer: The koff was 1.5 × 10^-2.

Question: And the kon ([2]; SPR, pH 7.4, 25° C.)?
Answer: The kon was 1e+06 M⁻¹ s⁻¹.

Question: What about the Ka [2, 12] of the same compound?
Answer: Its Ka is 1.1e+07 M⁻¹.

Question: What about the koff [2, 11] of the same compound?
Answer: Its koff is 0.09.

Question: What about the koff [3, 11] of the same compound?
Answer: The koff was 0.60.

Question: And the kon ([4]; SPR, pH 7.4, 25° C.)?
Answer: The kon was 1e+06 M⁻¹ s⁻¹.

Question: What about the Ka [4, 12] of the same compound?
Answer: The Ka was 8.3e+06 M⁻¹.

Question: And the koff [4, 11]?
Answer: Its koff is 0.12.

Question: What about the kon ([5]; SPR, pH 7.4, 25° C.) of the same compound?
Answer: Its kon is 1e+06 M⁻¹ s⁻¹.

Question: What about the Ka [5, 12] of the same compound?
Answer: The Ka was 7.9e+07 M⁻¹.

Question: And the koff [5, 11]?
Answer: The koff was 0.013.

Question: And the kon ([6]; SPR, pH 7.4, 25° C.)?
Answer: The kon was 100000 M⁻¹ s⁻¹.

Question: What about the Ka [6, 12] of the same compound?
Answer: The Ka was 6.7e+06 M⁻¹.

Question: And the koff [6, 11]?
Answer: Its koff is 0.12.

Question: What about the kon ([7]; SPR, pH 7.4, 25° C.) of the same compound?
Answer: The kon was 1e+06 M⁻¹ s⁻¹.

Question: What about the koff [7, 11] of the same compound?
Answer: Its koff is 1.0 × 10^-2.

Question: What about the kon ([8]; SPR, pH 7.4, 25° C.) of the same compound?
Answer: Its kon is 1e+06 M⁻¹ s⁻¹.

Question: What about the koff [8, 11] of the same compound?
Answer: The koff was 1.7 × 10^-2.

Question: What about the koff [9, 11] of the same compound?
Answer: The koff was 0.3.

Question: And the “fold lower affinity than for digoxin, digitoxin and digoxigenin” value [10]?
Answer: Its value is 42 fold.

Question: For C[C@]12CC[C@H](O)C[C@H]1CC[C@@H]1[C@@H]2C[C@@H](O)[C@]2(C)[C@@H](C3=CC(=O)OC3)CC[C@]12O [digoxigenin], which Ka [10] is on record?
Answer: The Ka was “approximately 9×10^9 M^-1”.

Question: What does the source list for C[C@H]1O[C@@H](O[C@H]2[C@@H](O)C[C@H](O[C@H]3[C@@H](O)C[C@H](O[C@H]4CC[C@@]5(C)[C@H](CC[C@@H]6[C@@H]5C[C@@H](O)[C@]5(C)[C@@H](C7=CC(=O)OC7)CC[C@]65O)C4)O[C@@H]3C)O[C@@H]2C)C[C@H](O)[C@@H]1O [Digoxin, digoxin]?
Answer: kon ([1]; SPR, pH 7.4, 25° C.): 1.2e+08 M⁻¹ s⁻¹; koff ([1]; pH 7.4): 7.0 × 10^-4; kon ([2]; SPR, pH 7.4, 25° C.): 1e+06 M⁻¹ s⁻¹; koff ([2]; pH 7.4): 2.0 × 10^-3; kon ([3]; SPR, pH 7.4, 25° C.): 940000 M⁻¹ s⁻¹; koff ([3]; pH 7.4): 8.0 × 10^-2; kon ([4]; SPR, pH 7.4, 25° C.): 1.3e+06 M⁻¹ s⁻¹; koff ([4]; pH 7.4): 5.0 × 10^-3; kon ([5]; SPR, pH 7.4, 25° C.): 1.5e+06 M⁻¹ s⁻¹; koff ([5]; pH 7.4): 5.8 × 10^-4; kon ([6]; SPR, pH 7.4, 25° C.): 1.4e+06 M⁻¹ s⁻¹; koff ([6]; pH 7.4): 5.4 × 10^-3; kon ([7]; SPR, pH 7.4, 25° C.): 1.2e+06 M⁻¹ s⁻¹; koff ([7]; pH 7.4): 1.9 × 10^-3; kon ([8]; SPR, pH 7.4, 25° C.): 1.2e+06 M⁻¹ s⁻¹; koff ([8]; pH 7.4): 5.2 × 10^-3; kon ([9]; SPR, hapten-BSA conjugate immobilized on CM5 chip, pH 7.4, 25° C.): 1e+08 M⁻¹ s⁻¹; Ka [9, 12]: 500000 M⁻¹; koff ([9]; pH 7.4): 2; Ka [10]: approximately 9×10^9 M^-1

Question: With C[C@H]1O[C@@H](O[C@H]2[C@@H](O)C[C@H](O[C@H]3[C@@H](O)C[C@H](O[C@H]4CC[C@@]5(C)[C@H](CC[C@@H]6[C@@H]5CC[C@]5(C)[C@@H](C7=CC(=O)OC7)CC[C@]65O)C4)O[C@@H]3C)O[C@@H]2C)C[C@H](O)[C@@H]1O [Digitoxin, digitoxin] as the compound, how does the kon ([1]; SPR, pH 7.4, 25° C.) read?
Answer: Its kon is 1e+06 M⁻¹ s⁻¹.

Question: And the koff [1, 11]?
Answer: Its koff is 1.3 × 10^-3.

Question: What about the Ka [2, 12] of the same compound?
Answer: Its Ka is 0 M⁻¹.

Question: What about the koff [2, 11] of the same compound?
Answer: The koff was 9.7 × 10^-3.

Question: And the Ka [3, 12]?
Answer: The Ka was 0 M⁻¹.

Question: And the koff [3, 11]?
Answer: Its koff is 0.09.

Question: What about the kon ([4]; SPR, pH 7.4, 25° C.) of the same compound?
Answer: The kon was 930000 M⁻¹ s⁻¹.

Question: And the koff [4, 11]?
Answer: Its koff is 8.2 × 10^-3.

Question: And the kon ([5]; SPR, pH 7.4, 25° C.)?
Answer: The kon was 960000 M⁻¹ s⁻¹.

Question: And the koff [5, 11]?
Answer: The koff was 1.7 × 10^-3.

Question: What about the kon ([6]; SPR, pH 7.4, 25° C.) of the same compound?
Answer: Its kon is 1e+06 M⁻¹ s⁻¹.

Question: What about the Ka [6, 12] of the same compound?
Answer: Its Ka is 9e+06 M⁻¹.

Question: What about the koff [6, 11] of the same compound?
Answer: Its koff is 0.11.

Question: What about the kon ([7]; SPR, pH 7.4, 25° C.) of the same compound?
Answer: Its kon is 1.3e+06 M⁻¹ s⁻¹.

Question: And the koff [7, 11]?
Answer: The koff was 1.3 × 10^-3.

Question: And the kon ([8]; SPR, pH 7.4, 25° C.)?
Answer: Its kon is 1.15e+06 M⁻¹ s⁻¹.

Question: What about the koff [8, 11] of the same compound?
Answer: Its koff is 2.7 × 10^-3.

Question: What about the Ka [9, 12] of the same compound?
Answer: The Ka was 8.4e+07 M⁻¹.

Question: And the koff [9, 11]?
Answer: Its koff is 0.014.

Question: And the Ka [10]?
Answer: The Ka was “approximately 9×10^9 M^-1”.

Question: Which results are given for C[C@]12CC[C@H](O)C[C@H]1CC[C@@H]1[C@@H]2CC[C@]2(C)[C@@H](C3=CC(=O)OC3)CC[C@]12O [Digitoxigenin]?
Answer: kon ([1]; SPR, pH 7.4, 25° C.): 1e+06 M⁻¹ s⁻¹; koff [1, 11]: 2.3 × 10^-2; kon ([2]; SPR, pH 7.4, 25° C.): 1e+06 M⁻¹ s⁻¹; Ka [2, 12]: 1e+08 M⁻¹; koff [2, 11]: 9.7 × 10^-2; kon ([3]; SPR, pH 7.4, 25° C.): 1e+06 M⁻¹ s⁻¹; koff [3, 11]: 1.48; Ka [4, 12]: 4.2e+07 M⁻¹; koff [4, 11]: 1.7 × 10^-1; kon ([5]; SPR, pH 7.4, 25° C.): 1e+06 M⁻¹ s⁻¹; Ka [5, 12]: 4.5e+08 M⁻¹; koff [5, 11]: 2.2 × 10^-2; Ka [6, 12]: 7e+08 M⁻¹; koff [6, 11]: 1.00; kon ([7]; SPR, pH 7.4, 25° C.): 1e+06 M⁻¹ s⁻¹; koff [7, 11]: 8.9 × 10^-2; kon ([8]; SPR, pH 7.4, 25° C.): 1.1e+06 M⁻¹ s⁻¹; koff [8, 11]: 1.8 × 10^-1; koff [9, 11]: 0.169
